Assay results: patent publication US20090312288A1 (TAKEDA PHARMACEUTICAL COMPANY LIMITED, priority 2008, published 2009)

Biological target: Aurora B/INCENP (Homo sapiens, UniProt Q96GD4)
Assay: Determination of inhibition of AIK: Aurora B/INCENP direct fluorescence polarization (IMAP) assay
Assay type: biochemical
Details: 10 uM ATP, 0.8 nM Aurora B/INCENP; values given as bins; read-out: IC50 of Exemplified Compounds Against AIK B
Protocol: Detection of the reaction product is performed by addition of Progressive IMAP binding reagent (Molecular Devices). Reaction product may be determined quantitatively by FP using an Analyst HT plate reader (Molecular Devices) with an excitation wavelength at 485 nm and emission at 530 nm and using a Fluorescein 505 dichroic mirror.
The assay reaction may be initiated as follows: 2 ul of (3×) 300 nM Fl-Peptide/30 uM ATP was added to each well of the plate, followed by the addition of 2 ul of (3×) inhibitor (2 fold serial dilutions for 11 data points for each inhibitor) containing 15% DMSO. Two microliters of (3×) 2.4 nM AuroraB/INCENP solution may be added to initiate the reaction (final enzyme concentration was 0.8 nM for Aurora B/INCENP). The reaction mixture may then be incubated at room temperature for 45 min, and quenched and developed by addition of 20 ul of 1 to 400 diluted Progressive IMAP binding reagent in 1× proprietary Progressive IMAP binding buffer A. Fluorescence polarization readings of the resulting reaction mixtures may be measured after a 60-minute incubation at room temperature.
IC50 values may be calculated by non-linear curve fitting of the compound concentrations and fluorescent polarization values to the standard IC50 equation.

Aurora B/INCENP, sequence (Q96GD4 whole entry): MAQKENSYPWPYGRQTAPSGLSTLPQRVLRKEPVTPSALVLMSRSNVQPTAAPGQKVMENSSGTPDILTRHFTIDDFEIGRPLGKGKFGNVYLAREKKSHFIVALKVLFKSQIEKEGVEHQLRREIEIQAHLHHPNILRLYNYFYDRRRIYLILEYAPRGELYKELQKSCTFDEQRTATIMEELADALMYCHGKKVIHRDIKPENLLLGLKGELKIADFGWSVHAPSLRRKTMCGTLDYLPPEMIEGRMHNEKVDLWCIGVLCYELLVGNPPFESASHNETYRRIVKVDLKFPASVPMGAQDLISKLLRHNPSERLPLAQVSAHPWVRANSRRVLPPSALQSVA
Aurora B/INCENP, sequence (Q9NQS7 whole entry partner): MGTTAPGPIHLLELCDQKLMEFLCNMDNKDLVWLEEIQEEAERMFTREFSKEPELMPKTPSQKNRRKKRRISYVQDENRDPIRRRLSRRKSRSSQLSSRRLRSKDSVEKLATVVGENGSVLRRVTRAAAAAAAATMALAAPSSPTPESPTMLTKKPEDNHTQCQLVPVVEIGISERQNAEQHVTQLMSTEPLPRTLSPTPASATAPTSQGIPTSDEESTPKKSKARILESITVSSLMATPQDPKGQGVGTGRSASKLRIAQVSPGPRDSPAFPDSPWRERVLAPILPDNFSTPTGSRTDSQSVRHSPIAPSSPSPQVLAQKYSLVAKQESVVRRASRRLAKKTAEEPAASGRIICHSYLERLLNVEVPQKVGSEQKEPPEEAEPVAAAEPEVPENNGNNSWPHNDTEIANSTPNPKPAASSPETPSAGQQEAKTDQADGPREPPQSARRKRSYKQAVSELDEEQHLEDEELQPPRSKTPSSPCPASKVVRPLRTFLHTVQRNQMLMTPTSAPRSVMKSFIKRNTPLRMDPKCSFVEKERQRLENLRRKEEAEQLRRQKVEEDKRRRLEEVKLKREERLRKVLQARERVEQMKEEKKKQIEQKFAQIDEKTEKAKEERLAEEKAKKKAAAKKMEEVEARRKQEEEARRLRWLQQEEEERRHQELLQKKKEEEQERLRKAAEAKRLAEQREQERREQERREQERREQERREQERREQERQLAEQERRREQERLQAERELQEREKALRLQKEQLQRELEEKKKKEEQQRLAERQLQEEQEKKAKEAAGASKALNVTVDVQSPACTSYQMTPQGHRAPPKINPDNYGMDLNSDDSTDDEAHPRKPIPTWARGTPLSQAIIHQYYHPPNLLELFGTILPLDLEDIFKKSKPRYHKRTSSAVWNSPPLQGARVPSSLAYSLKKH

| IC50 [nM] | Compound |
| --- | --- |
| > 13 | c1ccc(-c2cccc3[nH]c4ncccc4c23)cc1 [Compound 5, 5-phenyl-9H-pyrido[2,3-b]indole] |
| > 13 | CS(=O)(=O)c1cccc(-c2cccc3[nH]c4ncccc4c23)c1 [Compound 8, 5-(3-(methylsulfonyl)phenyl)-9H-pyrido[2,3-b]indole] |
| > 13 | CCS(=O)(=O)c1cccc(-c2cccc3[nH]c4ncccc4c23)c1 [Compound 9, 5-(3-(ethylsulfonyl)phenyl)-9H-pyrido[2,3-b]indole] |
| > 13 | Cc1cccc(-c2cccc3[nH]c4ncccc4c23)c1 [Compound 11, 5-m-tolyl-9H-pyrido[2,3-b]indole] |
| > 13 | O=S(=O)(NC1CC1)c1cccc(-c2cccc3[nH]c4ncccc4c23)c1 [Compound 12, N-cyclopropyl-3-(9H-pyrido[2,3-b]indol-5-yl)benzenesulfonamide] |
| < 4 | CNS(=O)(=O)c1cc(-c2ccc(C)c3[nH]c4ncc(C)cc4c23)ccc1OC [Compound 14, 5-(3,8-dimethyl-9H-pyrido[2,3-b]indol-5-yl)-2-methoxy-N-methylbenzenesulfonamide] |
| < 4 | CNS(=O)(=O)c1cccc(-c2ccc(C)c3[nH]c4ncc(C)cc4c23)c1 [Compound 15, 3-(3,8-dimethyl-9H-pyrido[2,3-b]indol-5-yl)-N-methylbenzenesulfonamide] |
| 5.6 to 8.5 | Cc1cnc2[nH]c3c(C)ccc(-c4cccc(S(=O)(=O)N(C)C)c4)c3c2c1 [Compound 16, 3-(3,8-dimethyl-9H-pyrido[2,3-b]indol-5-yl)-N,N-dimethylbenzenesulfonamide] |
| 5.6 to 8.5 | CCS(=O)(=O)c1cccc(-c2ccc(C)c3[nH]c4ncc(C)cc4c23)c1 [Compound 18, 5-(3-(ethylsulfonyl)phenyl)-3,8-dimethyl-9H-pyrido[2,3-b]indole] |
| 4 to 5.5 | Cc1cnc2[nH]c3c(C)ccc(-c4cccc(C(=O)NC5CC5)c4)c3c2c1 [Compound 20, N-cyclopropyl-3-(3,8-dimethyl-9H-pyrido[2,3-b]indol-5-yl)benzamide] |
| > 13 | CC(=O)Nc1ccc(Sc2cccc3[nH]c4ncccc4c23)cc1 [Compound 21, N-(4-(9H-pyrido[2,3-b]indol-5-ylthio)phenyl)acetamide] |
| > 13 | c1ccc(Sc2cccc3[nH]c4ncccc4c23)cc1 [Compound 23, 5-(phenylthio)-9H-pyrido[2,3-b]indole] |
| > 13 | Cc1cnc2[nH]c3c(C)ccc(SCc4ccccc4)c3c2c1 [Compound 25, 5-(benzylthio)-3,8-dimethyl-9H-pyrido[2,3-b]indole] |
| 5.6 to 8.5 | CCS(=O)(=O)c1cccc(-c2c[nH]c(=O)c3[nH]c4ncc(C)cc4c23)c1 [Compound 32, 5-(3-Ethanesulfonyl-phenyl)-3-methyl-7,9-dihydro-dipyrido[2,3-b;4′,3′-d]pyrrol-8-one] |
| 4 to 5.5 | CCS(=O)(=O)c1cccc(-c2cnc(Cl)c3[nH]c4ncc(C)cc4c23)c1 [Compound 33, 8-Chloro-5-(3-ethanesulfonyl-phenyl)-3-methyl-9H-dipyrido[2,3-b;4′,3′-d]pyrrole] |
| 5.6 to 8.5 | CCS(=O)(=O)c1cccc(-c2cnc(NCCCN(C)C)c3[nH]c4ncc(C)cc4c23)c1 [Compound 41, N′-[5-(3-Ethanesulfonyl-phenyl)-3-methyl-9H-dipyrido[2,3-b;4′,3′-d]pyrrol-8-yl]-N,N-dimethyl-propane-1,3-diamine] |
| 8.6 to 13 | CCS(=O)(=O)c1cccc(-c2cnc(NCCN(C)C)c3[nH]c4ncc(C)cc4c23)c1 [Compound 42, N′-[5-(3-Ethanesulfonyl-phenyl)-3-methyl-9H-dipyrido[2,3-b;4′,3′-d]pyrrol-8-yl]-N,N-dimethyl-ethane-1,2-diamine] |
| 5.6 to 8.5 | CCS(=O)(=O)c1cccc(-c2cnc(NCCCN3CCOCC3)c3[nH]c4ncc(C)cc4c23)c1 [Compound 43, [5-(3-Ethanesulfonyl-phenyl)-3-methyl-9H-dipyrido[2,3-b;4′,3′-d]pyrrol-8-yl]-(3-morpholin-4-yl-propyl)-amine] |
| 8.6 to 13 | CCS(=O)(=O)c1cccc(-c2cnc(NC3CCN(C)CC3)c3[nH]c4ncc(C)cc4c23)c1 [Compound 44, [5-(3-Ethanesulfonyl-phenyl)-3-methyl-9H-dipyrido[2,3-b;4′,3′-d]pyrrol-8-yl]-(1-methyl-piperidin-4-yl)-amine] |

| IC50 [nM] | Compound |
| --- | --- |
| 8.6 to 13 | CCS(=O)(=O)c1cccc(-c2cnc(NCC3CCN(C)CC3)c3[nH]c4ncc(C)cc4c23)c1 [Compound 46, [5-(3-Ethanesulfonyl-phenyl)-3-methyl-9H-dipyrido[2,3-b;4′,3′-d]pyrrol-8-yl]-(1-methyl-piperidin-4-ylmethyl)-amine] |
| 5.6 to 8.5 | CCS(=O)(=O)c1cccc(-c2cnc(C)c3[nH]c4ncc(C)cc4c23)c1 [Compound 47, 5-(3-Ethanesulfonyl-phenyl)-3,8-dimethyl-9H-dipyrido[2,3-b;4′,3′-d]pyrrole] |
| 8.6 to 13 | CCS(=O)(=O)c1cccc(-c2cnc(C#N)c3[nH]c4ncc(C)cc4c23)c1 [Compound 49, 5-(3-Ethanesulfonyl-phenyl)-3-methyl-9H-dipyrido[2,3-b;4′,3′-d]pyrrole-8-carbonitrile] |
| 5.6 to 8.5 | CCS(=O)(=O)c1cccc(-c2cnc(C(N)=O)c3[nH]c4ncc(C)cc4c23)c1 [Compound 50, 5-(3-Ethanesulfonyl-phenyl)-3-methyl-9H-dipyrido[2,3-b;4′,3′-d]pyrrole-8-carboxylic acid amide] |
| 5.6 to 8.5 | CCOc1ncc(-c2cccc(S(=O)(=O)CC)c2)c2c1[nH]c1ncc(C)cc12 [Compound 51, 5-(3-Ethanesulfonyl-phenyl)-8-ethoxy-3-methyl-9H-dipyrido[2,3-b;4′,3′-d]pyrrole] |
| 8.6 to 13 | CCS(=O)(=O)c1cccc(-c2cnc(OCCCN(C)C)c3[nH]c4ncc(C)cc4c23)c1 [Compound 52, {3-[5-(3-Ethanesulfonyl-phenyl)-3-methyl-9H-dipyrido[2,3-b;4′,3′-d]pyrrol-8-yloxy]-propyl}-dimethyl-amine] |
| 4 to 5.5 | CCS(=O)(=O)c1cccc(-c2cnc(OCCO)c3[nH]c4ncc(C)cc4c23)c1 [Compound 53, 2-[5-(3-Ethanesulfonyl-phenyl)-3-methyl-9H-dipyrido[2,3-b;4′,3′-d]pyrrol-8-yloxy]-ethanol] |
| 8.6 to 13 | CCS(=O)(=O)c1cccc(-c2cnc(OCC3CCN(C)CC3)c3[nH]c4ncc(C)cc4c23)c1 [Compound 54, 5-(3-Ethanesulfonyl-phenyl)-3-methyl-8-(1-methyl-piperidin-4-ylmethoxy)-9H-dipyrido[2,3-b;4′,3′-d]pyrrole] |
| < 4 | CCS(=O)(=O)c1cccc(-c2cnc(OCCCO)c3[nH]c4ncc(C)cc4c23)c1 [Compound 55, 3-[5-(3-Ethanesulfonyl-phenyl)-3-methyl-9H-dipyrido[2,3-b;4′,3′-d]pyrrol-8-yloxy]-propan-1-ol] |
| < 4 | CCS(=O)(=O)c1cccc(-c2cnc(OC[C@H](O)CO)c3[nH]c4ncc(C)cc4c23)c1 [Compound 56] |
| 4 to 5.5 | CCS(=O)(=O)c1cccc(-c2cnc(OC[C@@H](O)CO)c3[nH]c4ncc(C)cc4c23)c1 [Compound 57] |
| 8.6 to 13 | CCS(=O)(=O)c1cccc(-c2cnc(OCC(C)(C)O)c3[nH]c4ncc(C)cc4c23)c1 [Compound 58, 1-[5-(3-Ethanesulfonyl-phenyl)-3-methyl-9H-dipyrido[2,3-b;4′,3′-d]pyrrol-8-yloxy]-2-methyl-propan-2-ol] |
| 5.6 to 8.5 | CCS(=O)(=O)c1cccc(-c2cnc(Oc3ccccc3)c3[nH]c4ncc(C)cc4c23)c1 [Compound 59, 5-(3-Ethanesulfonyl-phenyl)-3-methyl-8-phenoxy-9H-dipyrido[2,3-b;4′,3′-d]pyrrole] |
| 4 to 5.5 | CCS(=O)(=O)c1cccc(-c2cnc(OCc3cncs3)c3[nH]c4ncc(C)cc4c23)c1 [Compound 60, 5-(3-Ethanesulfonyl-phenyl)-3-methyl-8-(thiazol-5-ylmethoxy)-9H-dipyrido[2,3-b;4′,3′-d]pyrrole] |
| 5.6 to 8.5 | CCN1CCC(COc2ncc(-c3cccc(S(=O)(=O)CC)c3)c3c2[nH]c2ncc(C)cc23)CC1 [Compound 61, 5-(3-Ethanesulfonyl-phenyl)-8-(1-ethyl-piperidin-4-ylmethoxy)-3-methyl-9H-dipyrido[2,3-b;4′,3′-d]pyrrole] |
| 4 to 5.5 | CCS(=O)(=O)c1cccc(-c2cnc(OC[C@H](C)O)c3[nH]c4ncc(C)cc4c23)c1 [Compound 62, (S)-1-[5-(3-Ethanesulfonyl-phenyl)-3-methyl-9H-dipyrido[2,3-b;4′,3′-d]pyrrol-8-yloxy]-propan-2-ol] |
| 4 to 5.5 | CCS(=O)(=O)c1cccc(-c2cnc(OC[C@@H](C)O)c3[nH]c4ncc(C)cc4c23)c1 [Compound 63, (R)-1-[5-(3-Ethanesulfonyl-phenyl)-3-methyl-9H-dipyrido[2,3-b;4′,3′-d]pyrrol-8-yloxy]-propan-2-ol] |
| 5.6 to 8.5 | CCS(=O)(=O)c1cccc(-c2cnc(OCCOC(=O)[C@@H](N)C(C)C)c3[nH]c4ncc(C)cc4c23)c1 [Compound 64, L-Valine-2-[5-(3-ethanesulfonyl-phenyl)-3-methyl-9H-dipyrido[2,3-b;4′,3′-d]pyrrol-8-yloxy]-ethyl ester] |
| 8.6 to 13 | CCS(=O)(=O)c1cccc(-c2cnc(OC[C@@H](C)OC(=O)[C@H](C)N)c3[nH]c4ncc(C)cc4c23)c1 [Compound 65, L-Alanine-(R)-2-[5-(3-ethanesulfonyl-phenyl)-3-methyl-9H-dipyrido[2,3-b;4′,3′-d]pyrrol-8-yloxy]-1-methyl-ethyl ester] |
